Measured values published in ChEMBL document CHEMBL1144201, “Design and synthesis of a series of meta aniline-based LFA-1 ICAM inhibitors” (Bioorg Med Chem Lett, 2008).

Key:
in vivo [1] = conditions: rat, 1 mg/kg
in vivo [2] = conditions: rat, po, 1 mg/kg
in vivo [3] = conditions: rat, 1 mg/kg; remark: listed apart in the source

`O=C(/C=C/c1ccc(Sc2cccc(N[C@H]3CC[C@@H](C(=O)O)CC3)c2)c(C(F)(F)F)c1C(F)(F)F)N1CCOCC1` gave a clearance (in vivo [1]) of 8.3 mL/min/kg, a bioavailability (in vivo [2]) of 13% and a half-life (in vivo [3]) of 1.8 h.

With `Nc1cccc(Sc2ccc(/C=C/C(=O)N3CCOCC3)c(C(F)(F)F)c2C(F)(F)F)c1` the bioavailability (in vivo [2]) was 27% and the half-life (in vivo [3]) was 4.5 h.

`CC(C)N1CCC(Nc2cccc(Sc3ccc(/C=C/C(=O)N4CCOCC4)c(C(F)(F)F)c3C(F)(F)F)c2)CC1` showed a bioavailability (in vivo [2]) of 32% and a half-life (in vivo [3]) of 7 h.
